The record followed here is ChEMBL document CHEMBL1128967, “Quantification of the extent of attenuation of the rate of turnover chemistry of the TEM-1 -lactamase by the -1R-hydroxyethyl group in substrates” (Bioorg Med Chem Lett, 1996).

The nature of test [1]: (§1) Compound was evaluated for the beta-lactamase activity as a substrate.
The nature of test [2]: Compound was evaluated for the beta-lactamase activity as substrate expressed as ratio of kcat/Km.
Test [3] is described as follows: Compound was evaluated for beta-lactamase activity as a substrate.
Test [4] has as its target Beta-lactamase (Enterobacter cloacae) (UniProt P05364). The description is as §1.
Test [5] in a line: Compound was evaluated for the beta-lactamase activity as a substrate expressed as ratio of kcat/Km.

The structures appear in SMILES notation.

Sequence of Beta-lactamase (Enterobacter cloacae) (P05364 21-381 limits assumed): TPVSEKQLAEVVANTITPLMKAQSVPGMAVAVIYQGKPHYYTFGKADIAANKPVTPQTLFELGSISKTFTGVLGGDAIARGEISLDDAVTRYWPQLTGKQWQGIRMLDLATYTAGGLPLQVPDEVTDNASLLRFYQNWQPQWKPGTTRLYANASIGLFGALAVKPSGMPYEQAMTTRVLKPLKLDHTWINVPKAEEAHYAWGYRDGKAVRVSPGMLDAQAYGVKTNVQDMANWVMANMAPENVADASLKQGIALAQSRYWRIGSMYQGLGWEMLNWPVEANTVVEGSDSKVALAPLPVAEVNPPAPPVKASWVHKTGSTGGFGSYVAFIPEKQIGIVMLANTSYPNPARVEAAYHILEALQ

In test [1], `C[C@@H](O)[C@H]1C(=O)N2C(C(=O)O)=C(SCCNC=N)C[C@H]12` returned a k cat of 0.04 s⁻¹. In test [2], the Ratio amounted to 1480 M⁻¹ s⁻¹. Moreover, in test [3], the Km was 27 µM.
On to `C[C@@H](O)[C@H]1C(=O)N2[C@@H]1SC(C)(C)[C@@H]2C(=O)O`, for which the k cat/Km in test [2] is 27 M⁻¹ s⁻¹.
`C[C@@H](O)[C@@H]1C(=O)N2[C@@H]1SC(C)(C)[C@@H]2C(=O)O`: in test [1], the Km stood at 1.6 µM, the Ks stood at 13.5 µM, the k3 was determined as 0.5 s⁻¹ and the k cat was 0.4 s⁻¹. The compound also had a k cat/Km in test [1] of 2.8 M⁻¹ s⁻¹. Besides, the k2 in test [4] was found to be 3.7 s⁻¹.
Turning to `CC1(C)S[C@@H]2CC(=O)N2[C@H]1C(=O)O`, the k cat/Km in test [5] was determined as 6.6 M⁻¹ s⁻¹.
